Data taken from ChEMBL document CHEMBL1671811, “Deconstruction of non-nucleoside reverse transcriptase inhibitors of human immunodeficiency virus type 1 for exploration of the optimization landscape of fragments” (J Med Chem, 2011).

Each compound was assayed against T1, Human immunodeficiency virus type 1 reverse transcriptase (Human immunodeficiency virus 1, UniProt Q72547) (assay: Inhibition of HIV1 reverse transcriptase).

| IC50 | SMILES |
| --- | --- |
| 0.0014 µM | Cc1cc(S(N)(=O)=O)ccc1NC(=O)COc1ccc(Cl)cc1C(=O)c1cc(F)cc(C(F)(F)F)c1 |

These compounds were tested against T1, Human immunodeficiency virus type 1 reverse transcriptase (assay: Binding affinity to HIV1 reverse transcriptase by surface plasmon resonance based biosensor assay).

| SMILES | Kd |
| --- | --- |
| O=C(CSc1nncn1-c1ccccc1)Nc1ccccc1 | 1700 µM |
| NS(=O)(=O)c1ccc(NC(=O)CSc2nc[nH]n2)cc1 | 1600 µM |
| CC(=O)c1ccccc1OCC(=O)Nc1ccccc1C | 800 µM |
| Cc1ccccc1OCC(=O)Nc1ccc(S(N)(=O)=O)cc1 | 1100 µM |
| S=C(NCCc1ccccc1)Nc1ccccn1 | 6 µM |
| S=C(NCCc1ccccc1)Nc1ccc(Br)cn1 | 2 µM |

Continued, values first:

| Kd | SMILES |
| --- | --- |
| 700 µM | NC(=S)NCCc1ccccc1 |
| 30 µM | NS(=O)(=O)c1ccc(NC(=O)COc2ccc(Cl)cc2)cc1 |
| 800 µM | Cc1ccc(-n2cnnc2SCC(=O)Nc2ccccc2)cc1 |
| 1300 µM | NS(=O)(=O)c1ccc(NC(=O)CSc2nncn2-c2ccccc2)cc1 |
